From patent US20210255193A1, “LYSINE REACTIVE PROBES AND USES THEREOF” (The Scripps Research Institute, priority 2017, published 2021)

Experiments:
Assay in all cases: competitive isoTOP-ABPP
HK1 Hexokinase-1 = biological target: T1, HK1 Hexokinase-1 (Homo sapiens, UniProt P19367); format: binding; design: key to isoTOP-ABPP reactivity ratio at lysine P19367_K510: R = MS1 peak area ratio, DMSO (heavy) / compound-treated (light); details: for isoTOP-ABPP ratio (R) at liganded lysine P19367_K510: sol, 231; for R value (DMSO/fragment) for probe 1 labeling: P19367_K510
T1 construct: isoTOP-ABPP experiments performed in cell lysates (in vitro); endogenous in cells; host or cells: soluble proteome of human cancer cell lines (MDA-MB-231; Ramos and Jurkat also prepared)
T1 sequence (P19367 1-917): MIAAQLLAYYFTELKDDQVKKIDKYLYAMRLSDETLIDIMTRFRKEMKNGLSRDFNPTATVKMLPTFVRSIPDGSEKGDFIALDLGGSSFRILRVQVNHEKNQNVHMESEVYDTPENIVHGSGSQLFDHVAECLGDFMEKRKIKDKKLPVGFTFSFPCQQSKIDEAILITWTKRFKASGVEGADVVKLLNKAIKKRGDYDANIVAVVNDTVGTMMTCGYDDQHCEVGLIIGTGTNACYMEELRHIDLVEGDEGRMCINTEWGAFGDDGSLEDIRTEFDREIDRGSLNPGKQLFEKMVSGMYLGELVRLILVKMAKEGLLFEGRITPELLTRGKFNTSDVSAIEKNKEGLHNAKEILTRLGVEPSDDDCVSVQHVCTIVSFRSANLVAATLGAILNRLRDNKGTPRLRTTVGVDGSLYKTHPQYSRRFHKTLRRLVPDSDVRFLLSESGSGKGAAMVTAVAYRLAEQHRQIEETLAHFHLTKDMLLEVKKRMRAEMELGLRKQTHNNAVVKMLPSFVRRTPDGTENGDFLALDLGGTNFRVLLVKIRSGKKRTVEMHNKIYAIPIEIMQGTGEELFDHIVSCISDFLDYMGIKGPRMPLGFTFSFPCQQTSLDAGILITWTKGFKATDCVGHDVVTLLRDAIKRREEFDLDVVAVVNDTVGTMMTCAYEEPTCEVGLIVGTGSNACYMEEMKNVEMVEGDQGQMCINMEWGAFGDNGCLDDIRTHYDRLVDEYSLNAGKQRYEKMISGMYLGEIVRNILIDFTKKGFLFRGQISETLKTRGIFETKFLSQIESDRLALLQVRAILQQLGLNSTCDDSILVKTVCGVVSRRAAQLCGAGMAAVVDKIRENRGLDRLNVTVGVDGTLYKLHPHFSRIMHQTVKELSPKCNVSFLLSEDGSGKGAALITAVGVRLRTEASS
Description: (§1) In vitro covalent fragment treatment for isoTOP-ABPP. All compounds were made up as solutions in DMSO (100×) and were used at a final concentration of 50 μM for activated esters and 100 μM for guanidinylating agents. For each profiling sample, 0.5 ml of lysate was treated with 5 μl of the 100× compound stock solution or 5 μl of DMSO. Samples were treated with activated esters for
(§2) STP-alkyne labeling and click chemistry. For concentration-dependent reactivity measurements by isoTOP-ABPP, 0.5 ml proteome aliquots were treated at ambient temperature with 1 mM STP-alkyne 1 (5 μl of 100 mM stock in DMSO) and 0.1 mM STP alkyne 1 (5 μl of 10 mM stock in DMSO), respectively. For competitive isoTOP-ABPP, after in vitro fragment treatment (detailed above), the samples were labeled for 1 h at ambient temperature with 0.1 mM STP-alkyne 1 (5 μl of 10 mM stock in DMSO). Samples were conjugated by copper-mediated azide-alkyne cycloaddition (CuAAC) to either the light (1 mM STP-alkyne or fragment treated) or heavy (0.1 mM STP-alkyne or DMSO treated) TEV tags (10 μl of 5 mM stocks in DMSO, final concentration=100 μM) using tris(2-carboxyethyl)phosphine hydrochloride
(§3) R value calculation and processing. The ratios of light and heavy MS1 peaks for each unique peptide were quantified with a CIMAGE software using default parameters (3 MS1 acquisitions per peak and signal to noise threshold set to 2.5). For reactivity measurements by isoTOP-ABPP, the R value was calculated from the ratio of MS1 peak areas, comparing the 1 mM STP alkyne sample (light TEV tag) with the 0.1 mM STP alkyne sample (heavy TEV tag). For competitive isoTOP-ABPP, the R value was calculated from the ratio of MS1 peak areas, comparing the DMSO treated sample (heavy TEV tag) with the compound treated sample (light TEV tag). […] Ratios for unique peptide entries are calculated for each experiment; overlapping peptides with the same modified lysine (for example, different charge states, MudPIT chromatographic steps or tryptic termini) are grouped together and the median ratio is reported as the final ratio (R). The peptide ratios reported by CIMAGE were further filtered to ensure the removal or correction of low-quality ratios in each individual data set. The quality filters applied were the following: removal of half tryptic peptides; for ratios with high standard deviations from the median (90% of the median or above) the lowest ratio was taken instead of the median; removal of peptides with R=20 and only a single MS2 event triggered during the elution of the parent ion; manual annotation of all the peptides with ratios of 20, removing any peptides with low quality elution profiles that remained after the previous curation steps (only done for competitive isoTOP-ABPP).
(§4) Cross-data processing for fragment screening. For compound treated samples, biological replicates of the same condition were averaged, if the standard deviation was below 60% of the mean; otherwise, for lysines with at least one R value <4 for a particular compound, the lowest value of the ratio set was taken. For lysines, where all R values for a particular compound were ≥4, the average was reported. For peptides containing several possible modified lysines, the lysine with the highest number of quantification events was used for analysis and the remaining, redundant peptides were reported as alternative modification sites. Peptides included in the aggregate dataset (those used for further bioinformatics and statistical analyses) were required to have been quantified in 2 experiments for competitive isoTOP-ABPP. Lysines were categorized as liganded, if they had at least one ratio R≥4 (hit fragments). For liganded lysines with R=20 for all liganding events, lysines were required to have been quantified with R=20 in two separate experiments and were further required to have been quantified with R<20 in one additional experiment.

[1] = biological target: T2, ABCE1 ATP-binding cassette sub-family E member 1 (Homo sapiens, UniProt P61221); details: for isoTOP-ABPP ratio (R) at liganded lysine P61221_K191 / isoTOP-ABPP ratio (R) at liganded lysine P61221_K478: sol, 231
T2 construct: isoTOP-ABPP experiments performed in cell lysates (in vitro); endogenous in cells; host or cells: soluble proteome of human cancer cell lines (MDA-MB-231, Ramos, Jurkat)
Description: as §1, §2, §3, §4

[2] = biological target: T3, MAP1LC3B Microtubule-associated proteins 1A/1B light chain (Homo sapiens, UniProt Q9GZQ8); format: binding; design: key to isoTOP-ABPP reactivity ratio at lysine Q9GZQ8_K51: R = MS1 peak area ratio, DMSO (heavy) / compound-treated (light); details: for isoTOP-ABPP ratio (R) at liganded lysine Q9GZQ8_K51: sol, 231; for R value (DMSO/fragment) for probe 1 labeling: Q9GZQ8_K51
T3 construct: isoTOP-ABPP experiments performed in cell lysates (in vitro); endogenous in cells; host or cells: soluble proteome of human cancer cell lines (MDA-MB-231; Ramos and Jurkat also prepared)
Description: as §1, §2, §3, §4

[3] = P61221_K191, 50 uM, 231 sol, in vitro
[4] = P61221_K478, 50 uM, 231 sol, in vitro

R value (DMSO/fragment) for probe 1 labeling (HK1 Hexokinase-1; 50 uM, 231 sol, in vitro) | R value (DMSO/fragment) for probe 1 labeling [1, 3] | R value (DMSO/fragment) for probe 1 labeling [1, 4] | R value (DMSO/fragment) for probe 1 labeling ([2]; 50 uM, 231 sol, in vitro) | SMILES | isoTOP-ABPP ratio (R) at liganded lysine P19367_K510 (HK1 Hexokinase-1; 50 uM, in vitro) | isoTOP-ABPP ratio (R) at liganded lysine P61221_K191 ([1]; 50 uM, in vitro) | isoTOP-ABPP ratio (R) at liganded lysine P61221_K478 ([1]; 50 uM, in vitro) | isoTOP-ABPP ratio (R) at liganded lysine Q9GZQ8_K51 ([2]; 50 uM, in vitro) | further results
– | – | – | – | CC(C)(C)OC(=O)NCCCC(=O)Oc1ccc([N+](=O)[O-])cc1[N+](=O)[O-] [fragment 41, 2,4-Dinitrophenyl 4-((tert-butoxycarbonyl)amino)butanoate] | 12.6 | 1.2 | 1.3 | 0.9 | –
1.3 | 1.5 | 1.6 | 1.2 | Cn1cc(CC(=O)Oc2c(F)c(F)c(F)c(F)c2F)c2ccccc21 [fragment 22, Pentafluorophenyl 2-(1-methyl-1H-indol-3-yl)acetate] | – | – | – | – | –
– | – | – | – | O=C(Oc1ccc([N+](=O)[O-])cc1[N+](=O)[O-])c1ccc(-c2ccccc2)cc1 [fragment 37, 2,4-Dinitrophenyl [1,1′-biphenyl]-4-carboxylate] | 0.9 | 0.9 | 1.0 | 0.9 | –
– | – | – | – | COc1cc(CCC(=O)Oc2ccc([N+](=O)[O-])cc2[N+](=O)[O-])cc(OC)c1OC [fragment 33, 2,4-Dinitrophenyl 3-(3,4,5-trimethoxyphenyl)propanoate] | – | – | – | – | isoTOP-ABPP reactivity ratio at lysine P19367_K510 (HK1 Hexokinase-1; 50 uM, 231 sol, in vitro): 20.0; isoTOP-ABPP reactivity ratio at lysine P61221_K191 ([1]; 50 uM, 231 sol, in vitro): 1.1; isoTOP-ABPP reactivity ratio at lysine P61221_K478 ([1]; 50 uM, 231 sol, in vitro): 1.2; isoTOP-ABPP reactivity ratio at lysine Q9GZQ8_K51 ([2]; 50 uM, 231 sol, in vitro): 0.8
0.9 | 0.9 | 1.2 | 0.9 | O=C(Oc1c(F)c(F)c(F)c(F)c1F)C(c1ccccc1)c1ccccc1 [fragment 20, Pentafluorophenyl 2,2-diphenylacetate] | – | – | – | – | –
– | – | – | – | O=C(Oc1ccc([N+](=O)[O-])cc1[N+](=O)[O-])c1ccc2ccccc2n1 [fragment 35, 2,4-Dinitrophenyl quinoline-2-carboxylate] | 1.1 | 1.1 | 1.1 | 1.0 | –
– | – | – | – | O=C(CCc1ccc2c(c1)OCO2)Oc1ccc([N+](=O)[O-])cc1[N+](=O)[O-] [fragment 45, 2,4-Dinitrophenyl 3-(benzo[d][1,3]dioxol-5-yl)propanoate] | – | – | – | – | isoTOP-ABPP ratio, lysine P19367_K510 (HK1 Hexokinase-1; 50 uM_231_sol_in vitro): 5.3; isoTOP-ABPP ratio, lysine P61221_K191 ([1]; 50 uM_231_sol_in vitro): 1.1; isoTOP-ABPP ratio, lysine P61221_K478 ([1]; 50 uM_231_sol_in vitro): 1.5; isoTOP-ABPP ratio, lysine Q9GZQ8_K51 ([2]; 50 uM_231_sol_in vitro): 1.0
2.0 | 1.3 | 1.5 | 0.7 | COc1cc(CCC(=O)Oc2c(F)c(F)c(F)c(F)c2F)cc(OC)c1OC [fragment 23, Pentafluorophenyl 3-(3,4,5-trimethoxyphenyl)propanoate] | – | – | – | – | –
